How the values were obtained:
[1] = tested on: mouse breast tumor 4T1 cells; test: Wound-healing assay, serum-induced migration of 4T1 cells; format: cell-based; conditions: 2 μM
Procedure: (§1) Cells. Mouse 4T1 mammary tumor cells and human MDA-MB-231 breast tumor cells were obtained from ATCC and have been described previously (Shan et al. 2005, Yang et al. 2005). 4T1 cells were cultured in RPMI 1640 medium supplemented with 10% FBS. MDA-MB-231 cells were cultured in DMEM supplemented with 10% FBS. Wound-healing assay. The wound-healing assay involves observing whether confluent cells can migrate across a scrape or wound in the cell layer. Cell migration assays were performed as described previously (Yang et al. 2005, Shan et al 2006). Tumor cells were plated in a 24-well plate coated with gelatin in standard media. After the cells grew to confluence, wounds were made in the confluent layer of cell using a sterile instrument such as a sterile pipette tip. The cells were washed with Phosphate Buffered Saline (PBS) or other sterile solutions and then the migration was induced by adding medium supplemented with 10% FBS. When the wound for the positive control closed, cells were fixed with 3.7% formaldehyde and stained with crystal violet staining solution. […] Photographs several random regions of the filter facing the second chamber are taken and the number of cells counted to calculate the average number of cells that had transmigrated.

[2] = tested on: human breast tumor MDA-MB 231 cells; test: Cell migration assay, MDA-MB-231 cells; format: cell-based
Procedure: as §1, with “media.” for “media. After the cells grew to confluence, wounds were made in the confluent layer of cell using a sterile instrument such as a sterile pipette tip. The cells were washed with Phosphate Buffered Saline (PBS) or other sterile solutions and then the migration was induced by adding medium supplemented with 10% FBS. When the wound for the positive control closed, cells were fixed with 3.7% formaldehyde and stained with crystal violet staining solution.”
Boyden Chamber Cell Migration Assay. […] Three randomly selected fields (10× objectives) on the lower side of the insert were photographed, and the migrated cells were counted. The migration was expressed as either the average number of migrated cells in a field or as percentage of migrated cells in positive control. Percentage was calculated with the formula P=100×(M−Mnc)/Mpc, where P is the percentage of migrated cells, M is the number of migrated cells, Mnc is the number of migrated cells in negative controls, and Mpc is the number of migrated cells in positive controls.

[3] = tested on: human fascin His474 to Lys or Ala mutants; test: Chamber migration of fascin siRNA-treated 4T1 cells rescued with His474 mutants of human fascin; format: cell-based; conditions: His474 to Lys or Ala human fascin in fascin siRNA-treated 4T1 cells
Procedure: Boyden Chamber Cell Migration Assay. Cells (5×10^4) suspended in starvation medium were added to the upper chamber of an insert (6.5 mm diameter, 8-micrometer pore size, Becton Dickenson), and the insert was placed in a 24-well dish containing starvation medium with or without 10% FBS (Yang et al. 2005, Shan et al. 2006). When used, inhibitors were added to both chambers. Migration assays were carried out for 4-6 hours and cells were fixed with 3.7% formaldehyde. Cells were stained with crystal violet staining solution, and cells on the upper side of the insert were removed with a cotton swab. Three randomly selected fields (10× objectives) on the lower side of the insert were photographed, and the migrated cells were counted. The migration was expressed as either the average number of migrated cells in a field or as percentage of migrated cells in positive control. Percentage was calculated with the formula P=100×(M−Mnc)/Mpc, where P is the percentage of migrated cells, M is the number of migrated cells, Mnc is the number of migrated cells in negative controls, and Mpc is the number of migrated cells in positive controls.

fascin = fascin (Homo sapiens, UniProt Q16658); test: GST-fascin and biotin-macroketone interaction; format: binding; set-up: made in house; host or cells: Escherichia coli BL21; conditions: excess unlabeled compound
Procedure: Whole cell lysates from 4T1 mouse breast tumor cells were made. After preclearing the cell lysate with immobilized neutravidin biotin binding protein (Pierce, IL, USA) to remove biotin and avidin-binding proteins, the cell lysates were loaded to a column packed with the biotin-labeled macroketone (conjugated to neutravidin beads). A control column packed with free biotin and neutravidin beads was run side-by-side. After washing the column with 10 bed volumes of lysis buffer with 300 mM NaCl, the bound proteins were eluted with 0.1 M Glycine-HCl at pH 2.8 according to the manufacturer's instruction. […] Protein Expression and Purification. Recombinant GST-fascin fusion protein was produced in BL21 Escherichia coli. A 1-liter culture was grown to an A600 reading of 1.0 and then induced by addition of 0.3 mM isopropyl 1-thio-D-galactopyranoside (IPTG) for 12 hours at 25° C. Cells were flash frozen and then lysed by sonication in Tris-buffered saline. The supernatant was then incubated with glutathione-Sepharose for 2 h at 4° C. After extensive washing, GST-fascin was eluted and concentrated with a Centricon Plus-20 (Millipore). To remove the GST tag from the fusion protein, beads were incubated with thrombin overnight at 4° C. The supernatant was collected and concentrated. GST-fascin and Biotin-macroketone Interaction. […] Proteins associated with biotin-macroketone were precipitated with Untralink-immobilized NeutrAvidin agarose (Pierce). After extensive washing, bound proteins were eluted with SDS sample buffer and resolved by 10% SDS-PAGE. F-Actin Bundling Assay. Actin bundling activity was measured by low speed centrifugation assay and fluorescence microscopy. In low-speed centrifugation assay, monomeric rabbit G-actin was induced to polymerize at room temperature in F-actin buffer (20 mM Tris-HCl at pH 8, 1 mM ATP, 1 mM DTT, 2 mM MgCl2 and 100 mM KCl). Recombinant fascin proteins or control buffer were subsequently incubated with F-actin for 60 min at room temperature and centrifuged for 30 min at 10,000 g in an Eppendorf 5415D table-top centrifuge.

## COC1C=CCCCCC(=O)CCC(C)=CC(C)C1O (centres unmarked) [macroketone, Migrastatin ketone]
[1]
  inhibition of serum-induced migration (wound-healing): inhibited the migration
[2]
  inhibition of migration: inhibited the migration
[3]
  inhibition of rescued migration: not inhibited
fascin
  competition of binding of biotin-conjugated macroketone to fascin: efficiently competed
fascin; listed as unlabeled macroketone
  competition of binding of biotin-conjugated macroketone to fascin: decreased the binding
